≈ marks a conversion by molar mass, not a printed value. Structures can show the parent of a compound that is named as a salt. Where two headings read alike, the source gives them in different places.
Key:
Format in all cases: cell-based
[1] = system: Aspergillus flavus AFL1 (ATCC MYA-3631); test: Fungal MIC Protocol, Aspergillus flavus; details: Aspergillus flavus, read-out: MIC Aspergillus flavus 3631
Protocol: (§1) Fungal MIC Protocol: RPMI/MOPS media (Roswell Park Memorial Institute/3-morpholinopropane-1-sulfonic acid media) is prepared by dissolving 8.4 grams RPMI […] (Sigma cat #R1383), 34.52 grams MOPS buffer (Sigma cat #M3.183) and 2 […] glucose in 900 mL deionized water. The pH is adjusted to 7.0 with NaOH and filter sterilized. 0.1 mL, of a stock spore suspension (or loop from frozen stock) is inoculated to a 75 mL tissue culture flask (Falcon cat #353136) containing 50 mL of Potato Dextrose Agar (PDA, 24 grams PD broth (Fisher cat #DF 0549179), 20 grams agar (Fisher cat #BP 1423500) per liter water). Aspergillus and Fusarium strains are grown at 35° C. and Mucor strains are grown at room temperature for 3-5 days. Spores are harvested by flooding the flask with 5 mL phosphate buffered saline (PBS) pH 7.4+0.1% Tween-20 and several glass beads (Fisher cat #S800243) are added to aid in agitation. The supernatant is removed and the OD530 of a 1:100 dilution is measured. Spores are diluted in RPMI/MOPS to a final OD530 of 0.002 for Aspergillus and an OD530 of 0.005 for Fusarium and Mucor. The final concentration of spores is approximately 2×10^4 cfu/mL. Test compound(s) are diluted to 200 ug/mL in RPMI/MOPS ([…]). Ten (10) serial dilutions are prepared with RPMI/MOPS in a 96-well round bottom plate (Fisher cat #353136). For Mucor strains a sterile flat-bottom 96-well plate is used. 50 μl of compound dilutions in duplicate are added to a sterile 96-well round bottom plate. 50 ul of diluted spores are added to the compound-containing plates. Control wells include 1) compound but no cells and 2) spores but no compound. Mix the plates gently by hand, place in ziplock bags and
(§2) incubate at 35° C. for 48 hours. […]

[2] = system: Aspergillus fumigatus T33439 (ATCC MYA-3626); test: Fungal MIC Protocol, Aspergillus fumigatus; details: Aspergillus fumigatus, read-out: MIC Aspergillus fumigatus 3626
Protocol: as §1, §2

Candida albicans GDH2346 = test: Candida Minimal Inhibitory Concentration (MIC); details: Candida albicans, GDH2346; 50% growth inhibition at 48 hours; read-out: MIC-50 Candida albicans GDH2346
Protocol: Candida Minimal Inhibitory Concentration (MIC): RPMI/MOPS media is prepared by dissolving 8.4 g RPMI 1640, 34.52 g MOPS buffer and 2 g glucose in 900 mL water. The pH is adjusted to 7.0 with NaOH. The total volume is brought to 1 L and the resulting solution is filter sterilized. The Candida stock is streaked on a Yeast extract Peptone Dextrose (YPD) agar plate and grown at 35° C. for isolation of single colonies. Compounds of the disclosure are diluted to 200 μg/mL in RPMI/MOPS (4.8 ul of 10 mg/mL DMSO stock in 240 ul media). Ten (10) 1:2 serial dilutions are prepared in RPMI/MOPS in a 96-well round bottom plate. Fifty (50) μl of compound dilutions are transferred in duplicate to a sterile tissue culture-treated 96-well flat-bottom, black-sided polypropylene plate. A single colony of Candida from the YPD plate is re-suspended in 5 mL phosphate buffered saline (BS) and optical density (OD) at 600 nm is measured. The suspension is adjusted to OD=1.0 and a 1:1000 dilution is prepared in RPMI/MOPS. Fifty (50) ul aliquots of the diluted yeast are added to the plates containing 50 μL of compound to all wells except 12E-H. Control wells include: 12 A-D cells, no compound and 12 E-H no cells, no compound. The plates are mixed gently by hand and placed in Ziplok bags in a 35° C. incubator. The OD600 is measured at 24 and 48 hours.

[3] = system: Fusarium falciforme FS1 (ATCC MYA-3636); test: Fungal MIC Protocol, Fusarium falciforme; details: Fusarium falciforme, 48 h, read-out: MIC Fusarium falciforme 3636
Protocol: as §1, §2

[4] = system: Fusarium solani (ATCC 58877); test: Fungal MIC Protocol, Fusarium solani; details: Fusarium solani, ATCC58877, 48 h, read-out: MIC Fusarium solani 58877
Protocol: as §1, §2

[5] = system: Mucor circinelloides 1463(62) (ATCC 26759); test: Fungal MIC Protocol, Mucor circinelloides (MIC-50); details: Mucor circinelloides, ATCC26759, 48 h, read-out: MIC-50 Mucorales circinelloides 26579
Protocol: as §1
(§3) incubate at 35° C. for 48 hours. Score the MIC visually (lowest concentration of compound showing >50% growth inhibition) using an inverted mirror.

[6] = system: Mucor ramosissimus 057718 (ATCC 90286); test: Fungal MIC Protocol, Mucor ramosissimus (MIC-50); details: Mucor ramosissimus, ATCC90286, 48 h, read-out: MIC-50 Mucorales ramosissimus 90286
Protocol: as §1, §3

[7] = 100% growth inhibition at 48 hours

MIC [1, 7] [µg/mL] | MIC [2, 7] [µg/mL] | MIC50 (Candida albicans GDH2346) [µg/mL] | Compound | MIC ([1]; 48 h) [µg/mL] | MIC ([2]; 48 h) [µg/mL] | MIC [3] [µg/mL] | MIC [4] [µg/mL] | MIC50 [5] [µg/mL] | MIC50 [6] [µg/mL]
3.13 (≈ 6.41 µM) | 0.78 (≈ 1.6 µM) | 1.56 (≈ 3.19 µM) | Cc1cc(N2CCN(C(=N)N)CC2)ccc1-c1nnc(-c2ccc(N3CCN(C(=N)N)CC3)cc2)o1 [Example 61, 4-(4-{5-[4-(4-Carbamimidoylpiperazin-1-yl)-2-methylphenyl]-1,3,4-oxadiazol-2-yl}phenyl)piperazine-1-carboximidamide] |  |  |  |  |  | 
25 (≈ 51.2 µM) | 25 (≈ 51.2 µM) | 1.56 (≈ 3.19 µM) | Cc1cc(-c2nnc(-c3ccc(N4CCN(C(=N)N)CC4)cc3)o2)ccc1N1CCN(C(=N)N)CC1 [Example 60, 4-(4-{5-[4-(4-Carbamimidoylpiperazin-1-yl)-3-methylphenyl]-1,3,4-oxadiazol-2-yl}phenyl)piperazine-1-carboximidamide] |  |  |  |  |  | 
6.25 (≈ 13.2 µM) | 0.78 (≈ 1.64 µM) | 3.13 (≈ 6.6 µM) | N=C(N)N1CCN(c2ccc(-c3nnc(-c4ccc(N5CCN(C(=N)N)CC5)cc4)o3)cc2)CC1 [Example 51, 4,4′-(4,4′-(1,3,4-Oxadiazole-2,5-diyl)bis(4,1-phenylene)) dipiperazine-1-carboximidamide] |  |  |  |  |  | 
1.56 (≈ 2.91 µM) | 1.56 (≈ 2.91 µM) | 0.2 (≈ 0.373 µM) | N=C(N)N1CC=C(c2ccc(-c3nnc(-c4ccc(C5=CCN(C(=N)N)CC5)cc4C(F)(F)F)o3)cc2)CC1 [Example 46, 4-(4-(5-(4-(1-Carbamimidoyl-1,2,3,6-tetrahydropyridin-4-yl)-2-(trifluoromethyl)phenyl)-1,3,4-oxadiazol-2-yl)phenyl)-5,6-dihydropyridine-1(2H)-carboximidamide] |  |  |  |  |  | 
6.25 (≈ 12.8 µM) | 25 (≈ 51.4 µM) | 1.56 (≈ 3.21 µM) | Cc1cc(C2CCN(C(=N)N)CC2)ccc1-c1nnc(-c2ccc(C3CCN(C(=N)N)CC3)cc2)o1 [Example 53, 4-(4-(5-(4-(1-Carbamimidoylpiperidin-4-yl)-2-methylphenyl)-1,3,4-oxadiazol-2-yl)phenyl)piperidine-1-carboximidamide] |  |  |  |  |  | 
3.13 (≈ 6.43 µM) | 0.78 (≈ 1.6 µM) | 1.56 (≈ 3.21 µM) | Cn1nc(-c2ccc(N3CCN(C(=N)N)CC3)cc2)cc1-c1ccc(N2CCN(C(=N)N)CC2)cc1 [Example 55, 4,4′-(4,4′-(1-Methyl-1H-pyrazole-3,5-diyl)bis(4,1-phenylene)) dipiperazine-1-carboximidamide] |  |  |  |  |  | 
0.39 (≈ 0.756 µM) | 1.56 (≈ 3.03 µM) | 0.78 (≈ 1.51 µM) | CNc1cc(C2=CCN(C(=N)N)CC2)ccc1-c1nnc(-c2ccc(C3=CCN(C(=N)N)CC3)cc2F)o1 [Example 47a, 4-(4-(5-(4-(1-Carbamimidoyl-1,2,3,6-tetrahydropyridin-4-yl)-2-(methylamino)phenyl)-1,3,4-oxadiazol-2-yl)-3-fluorophenyl)-5,6-dihydropyridine-1(2H)-carboximidamide] |  |  |  |  |  | 
 |  |  | N=C(N)N1CC=C(c2ccc(-c3nnc(-c4ccc(C5=CCN(C(=N)N)CC5)c(C(F)(F)F)c4)n3CCO)cc2C(F)(F)F)CC1 [Example 80, 4-(4-{5-[4-(1-carbamimidoyl-1,2,3,6-tetrahydropyridin-4-yl)-3-(trifluoromethyl)phenyl]-4-(2-hydroxyethyl)-4H-1,2,4-triazol-3-yl}-2-(trifluoromethyl)phenyl)-1,2,3,6-tetrahydropyridine-1-carboximidamide hydrochloride] | 25 | 25 | 25 | 25 | 25 | 25
 |  |  | COc1cc(C2=CCN(C(=N)N)CC2)ccc1-c1nnc(-c2ccc(C3=CCN(C(=N)N)CC3)cc2OC)n1CCO [Example 75, 4-(4-{5-[4-(1-carbamimidoyl-1,2,3,6-tetrahydropyridin-4-yl)-2-methoxyphenyl]-4-(2-hydroxyethyl)-4H-1,2,4-triazol-3-yl}-3-methoxyphenyl)-1,2,3,6-tetrahydropyridine-1-carboximidamide trifluoroacetate] | 3.13 | 1.56 | 1.56 | 0.39 | 25 | 25
